Patent publication US12077503B2, “Substituted cyclic amides and their use as herbicides” (FMC CORPORATION, priority 2015, dated 2024)

Assays:
Type in all cases: in vivo
[1] = test system: ryegrass, Italian (Italian ryegrass, Lolium multiflorum); assay: Test A postemergence; settings: Lolium multiflorum, post-emergence, 240 h, postemergence
Summary of the method: (§1)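 Preemergence soil spray on seeded pots or post-emergence spray on 1–2 leaf plants, in loam–sand blend. Greenhouse ~10 d. Visual rating 0–100 against untreated plants.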

[2] = test system: pigweed (Amaranthus retroflexus); assay: Test A postemergence; settings: Amaranthus retroflexus, post-emergence, 240 h, postemergence
Summary of the method: as §1

[3] = test system: wheat (Triticum aestivum); assay: Test A postemergence; settings: Triticum aestivum, post-emergence, 240 h, postemergence
Summary of the method: as §1

[4] = test system: ragweed (common ragweed, Ambrosia elatior); assay: Test A postemergence; settings: Ambrosia artemisiifolia, post-emergence, 240 h, postemergence
Summary of the method: as §1

[5] = test system: blackgrass (Alopecurus myosuroides); assay: Test A postemergence; settings: Alopecurus myosuroides, post-emergence, 240 h, postemergence
Summary of the method: as §1

[6] = test system: giant foxtail (Setaria faberii); assay: Test A postemergence; settings: Setaria faberi, post-emergence, 240 h, postemergence
Summary of the method: as §1

[7] = test system: corn (Zea mays); assay: Test A postemergence; settings: Zea mays, post-emergence, 240 h, postemergence
Summary of the method: as §1

[8] = test system: Galium (catchweed bedstraw, Galium aparine); assay: Test A postemergence; settings: Galium, post-emergence, 240 h, postemergence
Summary of the method: as §1

[9] = test system: Kochia (Kochia scoparia); assay: Test A postemergence; settings: Bassia scoparia, post-emergence, 240 h, postemergence
Summary of the method: as §1

[10] = test system: ryegrass, Italian (Italian ryegrass, Lolium multiflorum); assay: Test A preemergence; settings: Lolium multiflorum, pre-emergence, 240 h, preemergence, 0 to 100 scale where 0 is no effect and 100 is complete control, read-out: Ryegrass, Italian plant response rating
Summary of the method: as §1

[11] = test system: pigweed (Amaranthus retroflexus); assay: Test A preemergence; settings: Amaranthus retroflexus, pre-emergence, 240 h, preemergence, 0 to 100 scale where 0 is no effect and 100 is complete control, read-out: Pigweed plant response rating
[12] = test system: ragweed (common ragweed, Ambrosia elatior); assay: Test A preemergence; settings: Ambrosia artemisiifolia, pre-emergence, 240 h, preemergence, 0 to 100 scale where 0 is no effect and 100 is complete control, read-out: Ragweed plant response rating
Summary of the method: as §1

[13] = test system: giant foxtail (Setaria faberii); assay: Test A preemergence; settings: Setaria faberi, pre-emergence, 240 h, preemergence, 0 to 100 scale where 0 is no effect and 100 is complete control, read-out: Foxtail, Giant plant response rating
Summary of the method: as §1

[14] = test system: Kochia (Kochia scoparia); assay: Test A preemergence; settings: Bassia scoparia, pre-emergence, 240 h, preemergence, 0 to 100 scale where 0 is no effect and 100 is complete control, read-out: Kochia plant response rating
Summary of the method: as §1

[15] = 125 g ai/ha, visual injury rating, approximately 10 d

Work on `CN1C[C@H](c2ccc3c(c2)OC(F)(F)O3)[C@@H](C(=O)Nc2ccc(F)c(F)c2F)C1=O` [Compound 1204] yielded a pest or weed control at 125 g/ha ([1]; 125 g ai/ha, visual injury vs untreated controls after approx. 10 d, 0 = no effect, 100 = complete control, read-out: Ryegrass, Italian plant response rating (0 to 100 scale)) of 70%, a pest or weed control at 500 g/ha ([1]; 500 g ai/ha, 0 to 100 scale, 0 is no effect, 100 is complete control, read-out: Ryegrass, Italian plant response rating) of 80% and a pest or weed control at 125 g/ha ([2]; 125 g ai/ha, visual injury vs untreated controls after approx. 10 d, 0 = no effect, 100 = complete control, read-out: Pigweed plant response rating (0 to 100 scale)) of 70%. The pest or weed control at 500 g/ha ([2]; 500 g ai/ha, 0 to 100 scale, 0 is no effect, 100 is complete control, read-out: Pigweed plant response rating) was 80%, the plant injury at 125 g/ha ([3]; 125 g ai/ha, visual injury vs untreated controls after approx. 10 d, 0 = no effect, 100 = complete control, read-out: Wheat plant response rating (0 to 100 scale)) was 60% and the plant injury at 500 g/ha ([3]; 500 g ai/ha, 0 to 100 scale, 0 is no effect, 100 is complete control, read-out: Wheat plant response rating) was 70%. The pest or weed control at 125 g/ha ([4]; 125 g ai/ha, visual injury vs untreated controls after approx. 10 d, 0 = no effect, 100 = complete control, read-out: Ragweed plant response rating (0 to 100 scale)) was 20%, the pest or weed control at 500 g/ha ([4]; 500 g ai/ha, 0 to 100 scale, 0 is no effect, 100 is complete control, read-out: Ragweed plant response rating) was 60% and the pest or weed control at 125 g/ha ([5]; 125 g ai/ha, visual injury vs untreated controls after approx. 10 d, 0 = no effect, 100 = complete control, read-out: Blackgrass plant response rating (0 to 100 scale)) was 50%. It also gave a pest or weed control at 500 g/ha ([5]; 500 g ai/ha, 0 to 100 scale, 0 is no effect, 100 is complete control, read-out: Blackgrass plant response rating) of 70%, a pest or weed control at 125 g/ha ([6]; 125 g ai/ha, visual injury vs untreated controls after approx. 10 d, 0 = no effect, 100 = complete control, read-out: Foxtail, Giant plant response rating (0 to 100 scale)) of 90% and a pest or weed control at 500 g/ha ([6]; 500 g ai/ha, 0 to 100 scale, 0 is no effect, 100 is complete control, read-out: Foxtail, Giant plant response rating) of 90%. The plant injury at 125 g/ha ([7]; 125 g ai/ha, visual injury vs untreated controls after approx. 10 d, 0 = no effect, 100 = complete control, read-out: Corn plant response rating (0 to 100 scale)) was 70%, the plant injury at 500 g/ha ([7]; 500 g ai/ha, 0 to 100 scale, 0 is no effect, 100 is complete control, read-out: Corn plant response rating) was 80% and the pest or weed control at 125 g/ha ([8]; 125 g ai/ha, visual injury vs untreated controls after approx. 10 d, 0 = no effect, 100 = complete control, read-out: Galium plant response rating (0 to 100 scale)) was 50%. The pest or weed control at 500 g/ha ([8]; 500 g ai/ha, 0 to 100 scale, 0 is no effect, 100 is complete control, read-out: Galium plant response rating) was 60%, the pest or weed control at 125 g/ha ([9]; 125 g ai/ha, visual injury vs untreated controls after approx. 10 d, 0 = no effect, 100 = complete control, read-out: Kochia plant response rating (0 to 100 scale)) was 80% and the pest or weed control at 500 g/ha ([9]; 500 g ai/ha, 0 to 100 scale, 0 is no effect, 100 is complete control, read-out: Kochia plant response rating) was 80%. For the same compound, the pest or weed control at 125 g/ha [10, 15] was 70%, the pest or weed control at 500 g/ha ([10]; 500 g ai/ha) was 90% and the pest or weed control at 125 g/ha [11, 15] was 70%. It also gave a pest or weed control at 500 g/ha ([11]; 500 g ai/ha) of 100%, a pest or weed control at 125 g/ha [12, 15] of 90% and a pest or weed control at 500 g/ha ([12]; 500 g ai/ha) of 90%. For the same compound, the pest or weed control at 125 g/ha [13, 15] was 90%, the pest or weed control at 500 g/ha ([13]; 500 g ai/ha) was 90% and the pest or weed control at 125 g/ha [14, 15] was 80%. The pest or weed control at 500 g/ha ([14]; 500 g ai/ha) was 80%.
